Reference: patent US20220354835A1, “COMPOUNDS FOR DEGRADING TAU PROTEIN AGGREGATES AND USES THEREOF” (Aprinoia Therapeutics Limited, priority 2019, published 2022)

Assays:
[1] = target: T1, heparin-induced aggregated tau (aTau), full-length 2N4R human Tau (Homo sapiens, UniProt P10636); test: PBB5 competition assay; format: binding; details: 0.12 μM aTau
T1 construct: transformed with a full-length 2N4R tau expression plasmid; made in house; host or cells: E. coli BL21
Method: (§1) (A) Expression and purification of human Tau: 1 mM IPTG (Sangon Biotech, Cat. No A100487) was used to induce production of tau by bacteria (BL21, Invitrogen, Cat. No C600003) transformed with a full-length 2N4R tau expression plasmid. After 3 hours, cell pellet was resuspended in lysis buffer (100 mM PIPES, 1 mM EGTA, 1 mM MgSO4, pH 6.8) and lysed by sonication followed by centrifugation (15,000 rpm, 15 min, 4° C.). The supernatant was then placed in a boiling water bath for 20 min, followed by centrifugation (15,000 rpm, 15 min, 4° C.). Supernatant was loaded onto a Q-Sepharose® Fast Flow column (GE healthcare, Cat. No 17-0510-01), the flow-through fraction was loaded onto an SP-Sepharose® Fast Flow column (GE healthcare, Cat. No 17-0729-01), and tau protein was eluted with elution buffer (100 mM PIPES, 1 M NaCl, 1 mM EGTA, 1 mM MgSO4, 0.2 M NaCl, pH 6.8). Collected fractions of tau-containing eluates were pooled, concentrated and dialyzed against HEPES buffer (25 mM HEPES, 0.1 mM EDTA, 0.5 mM DTT, 100 mM NaCl, pH 7.2) and stored at −80° C. in small aliquots until use. Protein concentration was determined by UV absorption.
(§2) (B) Preparation of heparin-induced aggregated tau (aTau): 2 μM of tau prepared in 30 mM Tris-HCl, pH 7.5 buffer was incubated in tube with 15 μM heparin (Sigma, Cat. No H3149) at 37° C. for 24 hours.
(E) PBBS competition assay: 2 μM of aTau was diluted to 0.12 μM by […] (pH 6.8) and then incubated with 0.1 μM 2-(4-(2-(methylamino)pyridine-5-yl)-1,3-butadiene-1-yl)benzothiazole-6-ol (PBB5) and serially diluted compound (three-fold serial dilution, from 10 to 0.00017 μM) in a 96-well plate (Corning, Cat. No 3573) at 37° C. for 1 hour. Fluorescence intensity (excitation/emission=530/690 nm) of PBB5 was read by microplate spectrometer (EnSpire 2300, PerkinElmer). Percentage of competition was calculated using the following equation: (Max−well of compound alone)/(Max−Min)*100%, where Max=(Tau+PBB5) signals−(buffer+PBB5) signals; and Min=(buffer+PBB5) signals−(buffer+PBB5) signals.
The IC50 value of each compound was calculated with GraphPad Prism software using the “4 Parameter Logistic Model or Sigmoidal Dose-Response Model”:
Y=Bottom+(Top−Bottom)/(1+(IC50/×)^HillSlope)

[2] = target: T1, heparin-induced aggregated tau (aTau), full-length 2N4R human Tau; test: In vitro fluorometric aTau binding assay; details: 0.04 μM aTau, serially diluted compound 10 to 0.00017 μM, 37° C. 1 hour, fluorescence
Method: as §1, §2
(D) In vitro fluorometric aTau binding assays: 2 μM aTau was diluted to 0.04 μM with 30 mM Tris-HCl (pH 6.8), and then incubated with serially diluted compound (three-fold serial dilutions, from 10 to 0.00017 μM) in a 96-well plate (Corning, Cat. No 3573) at 37° C. for 1 hour. Fluorescence intensity (excitation/emission=370/500 nm) of APN-0729 was read by microplate spectrometer (EnSpire 2300, PerkinElmer). Compound Kd values were calculated using the following equation: Y=Bmax* X (Kd+X), where X is the concentration of compound; Y is the fluorescence signal of (compound+aTau)−(compound+DMSO); and Bmax is the maximum signal.

[3] = In vivo pharmacokinetic study of plasma and brain tissue; details: mice, 1 mg/kg, intravenous
Method: To determine whether the compounds of the present disclosure are capable of crossing the blood brain barrier (BBB), example compound 160313 was administered to mice in a pharmacokinetic study (1 mg/kg, intravenous) of plasma and brain tissue.
Animal Husbandry: Mice were housed at animal room environment with ventilation 15 times/hour, lighting 12 hours/day, temperature 20° C. to 24° C. and humidity 40% to 70%. The study rooms were disinfected and cleaned prior to the start of the study and the operation area was cleaned after each dosing or sampling during the study conduct. All animals had free access to food and water during the study. The animals had access to Certified Rodent Diet and water ad libitum. The nutritional composition and levels of contaminants of the diet and impurities and contaminants of the water were monitored by third organization. The health status of the animals was evaluated in accordance with accepted animal husbandry procedures and deemed suitable for experimental use. […]
Bioanalytical Method Development: The concentrations of compound in plasma and brain samples were determined using a liquid chromatography with tandem mass spectrometry (LC-MS/MS) based method.

T1 sequence (P10636 1-441 isoform P10636-8): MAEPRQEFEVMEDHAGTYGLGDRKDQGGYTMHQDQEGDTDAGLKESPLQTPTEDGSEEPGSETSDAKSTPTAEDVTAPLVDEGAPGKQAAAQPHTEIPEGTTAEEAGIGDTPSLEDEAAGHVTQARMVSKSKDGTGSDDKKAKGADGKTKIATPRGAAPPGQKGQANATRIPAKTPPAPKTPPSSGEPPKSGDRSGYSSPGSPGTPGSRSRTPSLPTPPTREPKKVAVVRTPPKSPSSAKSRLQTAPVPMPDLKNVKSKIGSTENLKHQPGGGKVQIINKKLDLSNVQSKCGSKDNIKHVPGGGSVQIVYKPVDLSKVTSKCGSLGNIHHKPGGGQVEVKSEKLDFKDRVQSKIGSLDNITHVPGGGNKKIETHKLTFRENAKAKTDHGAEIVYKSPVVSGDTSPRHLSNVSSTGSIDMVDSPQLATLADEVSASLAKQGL

Compound: CN(C)c1ccc(-c2ccc(-c3nc4ccc(NCCOCCOc5ccc6c(c5)CN(C5CCC(=O)NC5=O)C6=O)cc4s3)cc2)cn1 (stereo not shown) [Compound 160313, 3-[6-[2-[2-[[2-[4-[6-(dimethylamino)pyridin-3-yl]phenyl]-1,3-benzothiazol-6-yl]amino]ethoxy]ethoxy]-3-oxo-1H-isoindol-2-yl]piperidine-2,6-dione]
- IC50 ([1]; 0.1 μM PBB5, 37° C. 1 hour, PBB5 fluorescence 530/690 nm): 220 nM
- Emax ([1]; 0.1 μM PBB5, compound up to 10 μM, read-out: Competition Assay with PBB5: Bmax (%)): 64%
- Kd [2]: 80 nM
- Cmax, Brain [3]: 111 ng/mL
